Counter-ions that a name gives are not always drawn. Like-named read-outs stand apart in the source and are kept apart here. One block for each molecule: values may come before it.
Columns and labels:
[1] = biological target: T1, adenosine A2a receptor (Human) (Homo sapiens, UniProt P29274); experiment: c-AMP generating action in cell expressing adenosine A2a receptor; assay type: cell-based
T1 construct: host or cells: HEK293
Experimental: Test 1: c-AMP Generating Action in Cell Expressing Adenosine A2a Receptor
The test was carried out as mentioned below with reference to the method disclosed in the reference (Klotz k. N. et al., Naunyn-Schmiedeberg's Arch. Pharmacol., (1998) 357, 1-9; Shryock J. C. et al., Molecular Pharmacology, (1998) 53, 886-893).
As to the cell to be used in the test, HEK293 cell expressing adenosine A2a receptor (Human) (PerkinElmer Life Sciences, Code No. RBHA2AC) was used.
As to the culture medium, Dulbecco's modified Eagles medium (DMEM) including 10% FBS (Fetal bovine serum) and 1 mM of sodium pyruvate was used.
The cell was placed on 96 well plate (1×10^5/well), and cultured overnight. After removing off the supernatant, 0.1 ml of DMEM (without FBS) containing 20 mM HEPES, 0.1 mM IBMX (3-isobutyl-1-methylxanthine) and 2 unit/mL adenosine deaminase were added to each well, and they were incubated at 37° C. for 30 minutes. Then, 0.1 ml of the culture medium containing the DMSO solution of the test compound in the predetermined concentration was added to each well, and they were incubated for additional 30 minutes. After removing off the supernatant, the cytolytic solution was added thereto to quench the reaction. The amount of c-AMP in each well was measured by using the c-AMP enzyme immunoassay (EIA) system (Amersham Biosciences, Code No. RPN225).
The same assay was repeated using CGS-21680 (2-p-carboxyethyl)phenethylamino-5′-N-ethylcarboxamidoadenosine hydrochloride, (Sigma, code C141) as a reference compound.
The amount of resultant c-AMP in the reference medium, caused by 1 μM of the reference compound, was defined to be 100%. The amount of resultant c-AMP in each test medium was measured, and the concentration producing 50% c-AMP amount was calculated based on the results of each test compound in the predetermined concentration, which is defined as EC50 value.

[2] = test system: Rabbit corneal epithelium cell; experiment: Effect on corneal epithelium cell after UVA irradiation (neutral red uptake assay); assay type: cell-based; details: 60 min incubation, UVA 3.5 mW/cm^2 for 70 min, viability after 24 hours
Experimental: Test 2: Effect of the Compound of Example 1 to Corneal Epithelium Cell [Method]
Rabbit corneal epithelium cell (KURABO) was used as the cell for the test. To the rabbit corneal epithelium cell placed on 96 well plate was added the compound of Example 1, and the sample was incubated for 60 minutes. Then, the sample was irradiated with UVA (3.5 mW/cm^2) for 70 minutes using a solar simulator (SOL500). After that, the cell was washed with a buffer. After 24 hours, the cell viability was evaluated by the neutral red uptake assay.

[3] = test system: ciliary artery; experiment: Vascular relaxation of isolated ciliary artery contracted with High K+-krebs solution; design: species or system Rabbits
Experimental: Rabbits were sacrificed with an overdose of sodium pentobarbital by intravenous administration. The eyes were enucleated and ciliary arteries were isolated. Vascular rings were cut 2 mm in length from ciliary arteries and set to Danish Multi Myograph System 610M (Danish myo technology) under microscopic observation. The vessels were equilibrated in oxygenated krebs solution with 5% CO2 and 95% O2 at 37° C.
To confirm the endothelium damage of vessels, the relaxation of ciliary artery by 100 μM carbachol was tested. If relaxation by carbachol was more than 30%, the vessels whose endothelium had no damage were used for the experiments.
After ciliary artery was contracted with High K^+-krebs solution, the compound of Example 1 was serially administrated to chamber from 0.3 μM to 300 μM. The tension was measured by Myodaq ver 2.01 (Danish myo technology).

[4] = test system: retinal ganglion cell (RGC); experiment: Neuroprotection: cell survival of purified retinal ganglion cells; assay type: cell-based, Long Evans rat; details: five days of culture, control = 0%, BDNF (50 ng/mL) = 100%, Mean ± SE
Experimental: This experiment was performed according to a method reported by Otori et al. (Invest Opthalmol Vis Sci. 39: 972-981, 1998).
Eyes were enucleated from 7 day old Long Evans rat. Retinas were isolated from the eyes. The retinas were dissociated by incubating with Neurobasal medium including 15 U/mL papain at 37° C. for 30 minutes. The retinal suspension was prepared.
The retinal suspension was incubated in anti-SIRP antibody (Chemicon)-coated flask at room temperature for 30 minutes. The non adherent cells were placed in anti-thy-1 antibody (Chemicon)-coated flask. The cells were incubated at room temperature for 30 minutes. Finally the adherent cells in flask were washed with Neurobasal medium. After centrifugation at 800 rpm for 5 minutes, the purified RGC was prepared. The cells were seeded on glass coverslips that had been coated with poly-L-lysine and laminin. The purified RGC were cultured in Neurobasal medium containing B27 supplement, 1 mM glutamine 50 ng/mL CNTF, 10 μM Forskolin. Culture was maintained at 37° C. in humidified atmosphere containing 5% CO2 and 95%, air. BDNF (50 ng/mL) or the compound of Example 1 at final concentration of 0 nM (control), 3 nM, 10 nM or 30 nM was administered immediately after cell seeding.
Cell survival (cell viability) was determined by counting stained RGC. Five days after culture started, RGC were stained with 1 μM Calcein-AM (Molecular probe). The number of RGC was counted using fluorescence microscope. The percentage of cell survival (cell viability) was calculated by using the counts of control group as 0%, and the counts of BDNF group as 100%.
The cell survival was calculated by using the counts of control groups as 0% and the counts of BDNF groups as 100%.

[5] = HEK293 cell expressing human adenosine A2a receptor, c-AMP by 1 μM CGS-21680 defined as 100%, read-out: A2a agonistic activity (EC50)

T1 sequence (P29274 whole entry): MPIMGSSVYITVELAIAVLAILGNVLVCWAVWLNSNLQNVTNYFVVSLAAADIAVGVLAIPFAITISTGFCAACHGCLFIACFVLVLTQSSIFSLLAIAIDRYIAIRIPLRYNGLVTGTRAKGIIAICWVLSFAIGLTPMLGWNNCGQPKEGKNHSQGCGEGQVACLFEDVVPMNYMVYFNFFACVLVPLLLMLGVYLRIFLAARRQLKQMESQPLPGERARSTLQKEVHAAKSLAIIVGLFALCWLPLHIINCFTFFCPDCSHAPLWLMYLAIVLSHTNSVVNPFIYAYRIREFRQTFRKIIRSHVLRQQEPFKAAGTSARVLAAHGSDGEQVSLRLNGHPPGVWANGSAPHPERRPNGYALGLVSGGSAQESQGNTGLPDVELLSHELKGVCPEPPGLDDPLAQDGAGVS

- EC50 [1, 5]: 1.8 nM
Structure (SMILES): CC(=O)Nc1ccc(-c2nc(SCc3cccc(CCC(=O)N4CCN(CC5CCN(CCCO)CC5)CC4)n3)nc(N)c2C#N)cc1 [Example 3, N-(4-(6-amino-5-cyano-2-((6-(3-(4-((1-(3-hydroxy-propyl)piperidin-4-yl)methyl)piperazin-1-yl)-3-oxopropyl)-pyridin-2-yl)methylthio)pyrimidin-4-yl)phenyl)acetamide]

- EC50 [1, 5]: 2.9 nM
Structure (SMILES): CC(=O)Nc1ccc(-c2nc(SCc3cccc(CCC(=O)N4CCN(CC5CCN(CCO)CC5)CC4)n3)nc(N)c2C#N)cc1 [Example 2, N-(4-(6-amino-5-cyano-2-((6-(3-(4-((1-(2-hydroxyethyl)-piperidin-4-yl)methyl)piperazin-1-yl)-3-oxopropyl)pyridin-2-yl)methylthio)pyrimidin-4-yl)phenyl)acetamide maleate]

Structure (SMILES): CC(=O)Nc1ccc(-c2nc(SCc3cccc(CCC(=O)N4CCN(CC5CCN(CCF)CC5)CC4)n3)nc(N)c2C#N)cc1 [Example 4, N-(4-(6-amino-5-cyano-2-((6-(3-(4-((1-(2-fluoroethyl)-piperidin-4-yl)methyl)piperazin-1-yl)-3-oxopropyl)pyridin-2-yl)methylthio)pyrimidin-4-yl)phenyl)acetamide]
- EC50 [1]: 6.1 nM

- EC50 [1, 5]: 8.4 nM
Structure (SMILES): COC(=O)CCN1CCC(CN2CCN(C(=O)CCc3cccc(CSc4nc(N)c(C#N)c(-c5ccc(NC(C)=O)cc5)n4)n3)CC2)CC1 [Example 5, N-(4-(6-amino-5-cyano-2-((6-(3-(4-((1-(2-methoxy-carbonylethyl)piperidin-4-yl)methyl)piperazin-1-yl)-3-oxopropyl)pyridin-2-yl)methylthio)pyrimidin-4-yl)phenyl)-acetamide]

- EC50 [1, 5]: 3.3 nM
- EC50 ([3]; Oryctolagus cuniculus, rabbit ciliary artery rings, High K+ contraction): 17000 nM
Structure (SMILES): CC(=O)Nc1ccc(-c2nc(SCc3cccc(CCC(=O)N4CCN(CC5CCNCC5)CC4)n3)nc(N)c2C#N)cc1 [Example 1, N-(4-(6-amino-5-cyano-2-((6-(3-oxo-3-(4-(piperidin-4-yl-methyl)piperazin-1-yl)propyl)pyridin-2-yl)methylthio)-pyrimidin-4-yl)phenyl)acetamide trihydrochloride]
- cell viability ([2]; 0.25 mM): 106.3%
- cell viability ([2]; 0.5 mM): 115.0%
- cell viability ([2]; 1 mM): 100.7%
- Relaxation (%) ([3]; 0.3 μM): 2.6 ± 0.5%
- Relaxation (%) ([3]; 1 μM): 4.8 ± 1.2%
- Relaxation (%) ([3]; 3 μM): 7.9 ± 2.3%
- Relaxation (%) ([3]; 10 μM): 35.3 ± 14.4%
- Relaxation (%) ([3]; 30 μM): 65.6 ± 9.5%
- Relaxation (%) ([3]; 100 μM): 82.4 ± 3.7%
- Relaxation (%) ([3]; 300 μM): 90.1 ± 2.4%
- Cell survival (%) ([4]; 3 nM): 10.9 ± 7.0%
- Cell survival (%) ([4]; 10 nM): 46.5 ± 7.0%
- Cell survival (%) ([4]; 30 nM): 41.9 ± 5.5%

Source: US9708292B2, “Cyanopyrimidine derivative” (OTSUKA PHARMACEUTICAL CO., LTD., priority 2009, dated 2017)
